Test results reported in publication PMC6934599, “Phenoxyethyl Piperidine/Morpholine Derivatives as PAS and CAS Inhibitors of Cholinesterases: Insights for Future Drug Design” (Scientific Reports, 2019).
“Also recorded” adds a separate entry of the source. Where two headings read alike, the source gives them in different places.

Key:
[1] = molecular target: T1, AChE (E.C.3.1.1.7, from electric eel) (Electrophorus electricus, UniProt O42275); experiment: biochemical; assay type: biochemical; conditions: for cholinesterase inhibitory activity against eeAChE: in words
T1 construct: purchased Sigma-Aldrich and Fluka
Protocol: (§1) All the synthesized compounds were screened for their cholinesterase activity by Ellman’s spectrophotometric method with a slight modification. […] In brief, enzymatic reactions were accomplished in 96-well plates with total volume of 270 µL. Each well contained 0.1 M phosphate buffer (pH 7.4), 0.08 U/mL AChE or 0.05 U/mL BuChE and 0.3 mM of DTNB. In order to considering the influence of DMSO percentage on the enzymatic activity of AChE, different concentrations of the test sample were prepared in final concentrations of 0.2% DMSO. Then contents were incubated for 15 min at room temperature. The reaction was started with the addition of 20 µL of 0.45 mM substrate (ATCI/BTCI) into premixed enzyme/buffer/inhibitor mixture and monitored by using plate reader Synergy HT, Biotek, USA at 412 nm. The activity in the absence of sample compounds was considered as a blank. The percentage inhibition was calculated from (blank – test sample)/blank × 100.

[2] = molecular target: T2, BuChE (E.C.3.1.1.8, from equine serum) (Equus caballus, UniProt P81908); experiment: biochemical; assay type: biochemical; conditions: for inhibitory activity for eqBuChE: up to 100 µM concentrations; for cholinesterase inhibitory activity against eqBuChE: in words; for IC50: modified Ellman's method, read-out: eqBuChE IC50
T2 construct: BuChE (E.C.3.1.1.8, from equine serum); purchased Sigma-Aldrich and Fluka; host or cells: equine serum
Protocol: as §1

eeAChE = molecular target: T3, eeAChE (Electrophorus electricus, UniProt O42275); experiment: Kinetic study of eeAChE inhibition (Lineweaver-Burk); assay type: biochemical
T3 construct: purchased Sigma-Aldrich and Fluka
Protocol: Two fixed concentrations of the inhibitor (IC50, 2IC50) were chosen and for each concentration, the initial velocity (V) of the substrate ATCI/BTCI hydrolysis was measured at different concentrations in the range of 0–1.5 mM. […] Furthermore, Ki value was obtained by extrapolating the slopes of Lineweaver-Burk plots against inhibitor concentrations (Fig. 3B).
(§2) To determine the mechanisms of action of 5c and 7c, a series of experiments were performed at different concentrations of the substrate ATCI/BTCI. The inhibitor concentrations were (IC50, 2IC50). Substrates ATCI/BTCI concentrations were 0, 0.13, 0.3, 0.45, 0.675, 1.01 and 1.51 mM in all kinetic studies. Pre-incubation and measurement time were the same as reported in the perivous assay protocol. Kinetic characterization analysis was done spectrometrically at 412 nm.

AChE = conditions: cited from earlier work
Aβ peptide = conditions: cited from earlier work
eqBuChE = molecular target: T4, eqBuChE (Equus caballus, UniProt P81908); experiment: Kinetic study of eqBuChE inhibition (Lineweaver-Burk); assay type: biochemical
T4 construct: BuChE (E.C.3.1.1.8, from equine serum); purchased Sigma-Aldrich and Fluka; host or cells: equine serum
Protocol: as §2

[3] = modified Ellman's method, read-out: eeAChE IC50

T1 sequence (O42275 24-633): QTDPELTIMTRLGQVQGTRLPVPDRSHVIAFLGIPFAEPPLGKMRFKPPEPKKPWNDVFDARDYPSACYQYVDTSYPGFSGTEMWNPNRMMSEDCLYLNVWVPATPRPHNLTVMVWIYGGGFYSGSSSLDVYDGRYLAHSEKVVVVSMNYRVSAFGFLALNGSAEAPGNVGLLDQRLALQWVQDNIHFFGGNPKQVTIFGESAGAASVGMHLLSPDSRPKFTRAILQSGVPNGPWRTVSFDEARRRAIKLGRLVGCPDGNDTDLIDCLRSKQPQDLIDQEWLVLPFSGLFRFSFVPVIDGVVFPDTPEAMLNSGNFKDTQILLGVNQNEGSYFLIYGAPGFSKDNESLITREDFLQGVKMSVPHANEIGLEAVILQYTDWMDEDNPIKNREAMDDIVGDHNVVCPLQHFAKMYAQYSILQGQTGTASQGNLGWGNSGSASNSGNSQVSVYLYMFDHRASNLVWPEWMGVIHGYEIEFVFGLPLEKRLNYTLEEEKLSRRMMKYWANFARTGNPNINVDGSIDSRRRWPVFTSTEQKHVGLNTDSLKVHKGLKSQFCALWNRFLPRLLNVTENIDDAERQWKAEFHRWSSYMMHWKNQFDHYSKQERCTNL
T2 sequence (P81908 whole entry): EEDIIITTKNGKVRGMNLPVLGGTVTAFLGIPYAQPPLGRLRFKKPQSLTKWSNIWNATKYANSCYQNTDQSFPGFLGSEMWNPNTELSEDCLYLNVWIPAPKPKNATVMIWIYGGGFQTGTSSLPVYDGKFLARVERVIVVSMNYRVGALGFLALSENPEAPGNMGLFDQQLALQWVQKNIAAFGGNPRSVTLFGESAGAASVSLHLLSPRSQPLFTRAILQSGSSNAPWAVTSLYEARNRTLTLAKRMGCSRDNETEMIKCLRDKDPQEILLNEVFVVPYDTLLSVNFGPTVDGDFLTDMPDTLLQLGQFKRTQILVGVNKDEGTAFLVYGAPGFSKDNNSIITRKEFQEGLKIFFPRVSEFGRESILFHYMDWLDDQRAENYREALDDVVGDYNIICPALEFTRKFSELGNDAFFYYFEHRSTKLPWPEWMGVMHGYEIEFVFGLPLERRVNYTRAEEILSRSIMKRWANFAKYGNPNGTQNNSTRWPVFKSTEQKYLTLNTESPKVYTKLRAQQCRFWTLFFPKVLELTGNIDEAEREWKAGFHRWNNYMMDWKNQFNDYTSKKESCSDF
T3 sequence (O42275 24-633): as the sequence (O42275 24-633) above
T4 sequence (P81908 whole entry): as the sequence (P81908 whole entry) above

## N#CC(C#N)=Cc1ccc(OCCN2CCCCC2)cc1 [5a]
[1]
  IC50: 2800 ± 50 nM
[2]
  inhibitory activity for eqBuChE: no inhibitory activity

## COC(=O)/C(C#N)=C/c1ccc(OCCN2CCCCC2)cc1 [5c]
[1]; eeAChE vs eqBuChE IC50
  selectivity for AChE than for BuChE: more than 200 fold
[1]; [3]
  IC50: 500 nM
[2]
  inhibitory activity for eqBuChE: no inhibitory activity was found; also recorded: no inhibition
eeAChE; Lineweaver-Burk plots, substrate ATCI
  type of inhibition of eeAChE: mixed-type inhibition
eeAChE; slopes of Lineweaver-Burk plots against inhibitor concentrations
  Ki: 53 nM

## Cc1cc2c(c(=O)o1)C(c1ccc(OCCN3CCOCC3)cc1)C(C#N)=C(N)O2 (centres unmarked) [7f, 2-Amino-7-methyl-4-(4-(2-morpholinoethoxy)phenyl)-5-oxo-4H,5H-pyrano[4,3-b]pyran-3-carbonitrile]
[1]
  cholinesterase inhibitory activity against eeAChE: did not show any cholinesterase inhibitory activity
[2]
  cholinesterase inhibitory activity against eqBuChE: did not show any cholinesterase inhibitory activity

## O=Cc1ccc(OCCN2CCOCC2)cc1 [3b, 4-(2-morpholinoethoxy)benzaldehyde]
[1]
  cholinesterase inhibitory activity against eeAChE: did not show any cholinesterase inhibitory activity
[2]
  cholinesterase inhibitory activity against eqBuChE: did not show any cholinesterase inhibitory activity

## CC[N+](C)(CC)CCC[n+]1c(-c2ccccc2)c2cc(N)ccc2c2ccc(N)cc21 [Propidium, propidium]
AChE
  IC50: […]
Aβ peptide
  effect on Aβ aggregation: reduces the aggregation

## Cc1cc2c(c(=O)o1)C(c1ccc(OCCN3CCCCC3)cc1)C(C#N)=C(N)O2 (centres unmarked) [7e, 2-Amino-7-methyl-5-oxo-4-(4-(2-(piperidin-1-yl)ethoxy)phenyl)-4H,5H-pyrano[4,3-b]pyran-3-carbonitrile]
[1]; [3]
  IC50: 2100 ± 50 nM
[2]
  inhibitory activity for eqBuChE: no inhibitory activity

## COc1cc2c(cc1OC)C(=O)C(CC1CCN(Cc3ccccc3)CC1)C2 (centres unmarked) [Donepezil, donepezil]
Aβ peptide; at 100 µM, as stated in introduction section
  inhibition of the aggregation of Aβ peptide: 22%

## CC1(C)CC(=O)C2=C(C1)OC(N)=C(C#N)C2c1ccc(OCCN2CCCCC2)cc1 (centres unmarked) [7c, 2-Amino-7,7-dimethyl-5-oxo-4-(4-(2-(piperidin-1-yl)ethoxy)phenyl)-5,6,7,8-tetrahydro-4H-chromene-3-carbonitrile]
eqBuChE; Lineweaver-Burk plot, substrate BTCI
  type of inhibition of eqBuChE: mixed-type of inhibition
eqBuChE; plot of slopes against inhibitor concentration
  Ki: 156 nM
[1]; [3]
  IC50: 35600 ± 3700 nM
[2]
  IC50: 2500 ± 600 nM

## N#CC(C#N)=Cc1ccc(OCCN2CCOCC2)cc1 [5b]
[1]
  cholinesterase inhibitory activity against eeAChE: did not show any cholinesterase inhibitory activity
[2]
  cholinesterase inhibitory activity against eqBuChE: did not show any cholinesterase inhibitory activity

## N#CC1=C(N)OC2=C(C(=O)CCC2)C1c1ccc(OCCN2CCCCC2)cc1 (centres unmarked) [7a, 2-Amino-5-oxo-4-(4-(2-(piperidin-1-yl)ethoxy)phenyl)-5,6,7,8-tetrahydro-4H-chromene-3-carbonitrile]
[1]; [3]
  IC50: 20400 ± 9300 nM
[2]
  IC50: 8100 ± 500 nM

## CC[N+](C)(C)c1cccc(O)c1 [edrophonium]
AChE
  IC50: 5360 nM
Aβ peptide
  effect on Aβ aggregation: fails to slow down the Aβ aggregation
